Values joined by “and” are separate entries in the source; they are usually repeats but may differ in a detail not shown here. Equal values may be shown once. “Also recorded” adds a separate entry of the source.

Data on two molecules can be found in US20130078317A1, “ZINC-CONTAINING COMPOSITIONS FOR THE TREATMENT OF DISEASES, ILLNESSES AND SYNDROMES ASSOCIATED WITH EXPOSURE TO PORE FORMING TOXINS” (priority 2009, published 2013).

In one test the test system is hemolytic toxins. Particulars: 10 mM D-lactulose; cited from earlier work.
Test [1] deals with cubozoan porin. Particulars: pig, in vivo.
The test system of another test is Chironex fleckeri venom. Kind of test: Mouse envenomation model with echocardiography/electrocardiography, survival, plasma hemoglobin and potassium (Example 6). The format is in vivo.
The test system of test [2] is Chironex fleckeri venom in whole blood. The class given is cell-based, human.
Test [3] has as its system cubozoan porin. The test can be described thus: Human subjects envenomated by a cubozoan porin, subcutaneous bolus then continuous IV (Example 9). The class given is in vivo. Particulars: subcutaneous bolus 5 mL of 100 mM, then IV 5 mM.
In test [4] the test system is Chironex fleckeri venom in whole blood. The test can be described thus: Hemolysis induced by Chironex fleckeri venom in whole blood. The format is cell-based, human. As to conditions: 5 mM zinc gluconate, compared to untreated cells, FIG. 6.
Test [5] has as its system Carybdea alata venom in isolated red blood cells (2% RBC). Kind of test: Hemolysis induced by Carybdea alata venom in 2% RBC. The format is cell-based, human.
Test [6] concerns cubozoan porin. Kind of test: Human subjects envenomated by a cubozoan porin, transdermal patch (Example 10). The format is in vivo. Particulars: iontophoresis, 5 mM at 40 mAmp/min.
Test [7] concerns mushroom pore-forming toxin. Kind of test: Human subjects exposed to a mushroom pore-forming toxin, intravenous (Example 13). The format is in vivo. Particulars: IV 2.5 to 4 mg per day. How it is done: In this Example, human subjects are treated with zinc gluconate intravenously after being exposed to a mushroom pore-forming toxin. […] Samples are removed to monitor levels of potassium, cytokines, histamine, and catecholamine, in the blood serum.

For test [8], the system named is Carybdea alata venom in isolated red blood cells (2% RBC). The format is cell-based, human.
Another test concerns viral porin. The test can be described thus: Human subjects exposed to a viral porin, intravenous (Example 12). The class given is in vivo. As to conditions: IV 2.5 to 4 mg per day. How it is done: In this Example, human subjects are treated with zinc gluconate intravenously after being exposed to a viral porin. […] Samples are removed to monitor levels of potassium, cytokines, histamine, and catecholamine, in the blood serum.

In test [9] the test system is Chironex fleckeri venom in isolated red blood cells (2% RBC). The format is cell-based, human.
The subject of test [10] is Chironex fleckeri venom in whole blood. The test can be described thus: Cytokine production in whole blood exposed to Chironex fleckeri venom. The format is cell-based, human. Particulars: CF venom, 5 mM zinc gluconate, FIG. 7.
For test [11] the test system is unchanged. The test can be described thus: Catecholamine and histamine response in whole blood exposed to Chironex fleckeri venom. The class given is cell-based, human. As to conditions: CF venom, 5 mM zinc gluconate, FIG. 8.
In test [12] the test system is cubozoan porin. The test can be described thus: Human subjects envenomated by a cubozoan porin, intravenous zinc gluconate (Example 8). As to conditions: IV infusion 2.5 to 4 mg per day. The class given is in vivo.
In the next test the test system is bacterial porin. Kind of test: Human subjects exposed to a bacterial porin, intravenous (Example 11). The class given is in vivo. Particulars: IV 2.5 to 4 mg per day. On the procedure:
In this Example, human subjects are treated with zinc gluconate intravenously after being exposed to a bacterial porin. […] Samples are removed to monitor levels of potassium, cytokines, histamine, and catecholamine, in the blood serum.

Where [13] appears, read: mice, Zn Gluc then 2000 U venom IV, cardiac blood at death.

With `OC[C@H]1O[C@@H](O[C@@H]2[C@@H](CO)O[C@](O)(CO)[C@H]2O)[C@H](O)[C@@H](O)[C@H]1O` [D-lactulose], in the test on hemolytic toxins, the Hemolysis result was “dramatic absence of hemolysis”.

On to zinc gluconate, for which, in the test with cubozoan porin [1], the severity of symptoms result is “reduce the severity of symptoms” and the survival result was “siginificantly improve survival”. In the test with Chironex fleckeri venom (Mouse 2010-6-09-2, FIG. 10), the EKG recovery result is listed as “recovered within thirty seconds”, the “time of cessation of ventricular contraction” value was 10.5 min and the “time of recovery of ventricular contraction” value is 11 min. Also, the “rebounds of ventricular contraction subsequent to periods of pulseless electrical activity (PEA)” value with Chironex fleckeri venom (mice pre-injected with zinc gluconate, in three mice) was “frequently observed”. In addition, in the test with Chironex fleckeri venom (setting [13]), the Hemolysis is 6% and 4% and 2% and 3%; the “Plasma Hgb” value was 860 mg/100 mL and 673 mg/100 mL and 471 mg/100 mL. The survival rates entry in the test on Chironex fleckeri venom (relative to the untreated mice, FIG. 11) is given as “higher survival rates”. In addition, in the test with Chironex fleckeri venom (relative to the untreated mice, intravenous, FIG. 11, P<0.0001), the “duration of survival post-envenomation (survival times)” value is “longer durations of survival; also recorded: significantly prolonged”. Also, the “normal EKG conductive sequences maintained” value with Chironex fleckeri venom (zinc treated animals exposed to cubozoan PFT) is “for longer periods”. The “potassium efflux induced by Chironex fleckeri venom” value in test [2] is on record as “inhibited”. In addition, in the test on cubozoan porin [3], the “likelihood of a lethal outcome” value was “decrease the likelihood a lethal outcome” and the “severity of physiological symptoms associated with the venom poisoning” value is on record as “reduce the severity of physiological symptoms”. The “hemolysis induced by Chironex fleckeri venom” value in test [4] was “substantially less severe hemolysis”. Also, the “hemolysis induced by Carybdea alata venom” value in test [5] (2% RBC, 5 mM zinc gluconate) is given as “substantially inhibited”. Also, in [5] (venom dose 6.4 U/ml), the “decrease of the total hemolytic capacity of the venom dose” value is on record as “more than 10 fold”. In the test with cubozoan porin [6], the “likelihood of a lethal outcome” value was “decrease the likelihood a lethal outcome” and the “severity of physiological symptoms associated with the venom poisoning” value was “reduce the severity of physiological symptoms”. Moreover, in test [7], the “health of the subject” value was “improve the health of the subject” and the “severity of physiological symptoms associated with porin exposure” value is given as “reduce the severity of physiological symptoms”. For the same molecule, the “potassium efflux induced by Carybdea alata venom” value in test [8] is on record as “fully inhibited”. Also, in the test on viral porin, the “health of the subject” value is listed as “improve the health of the subject” and the “severity of physiological symptoms associated with porin exposure” value is reported as “reduce the severity of physiological symptoms”. In addition, the “potassium efflux induced by Chironex fleckeri venom” value in test [9] is “fully inhibited”. In test [10], the “production of EGF” value is recorded as “reduced”, the “production of G-CSF” value is reported as “reduced”, the “production of GRO” value is “reduced” and the “production of IFNα2” value is reported as “reduced”. Moreover, in test [10], the “production of PDGF-AA” value is given as “reduced” and the “production of TNFα” value is “reduced”. In [11], the catecholamine response result is “reduced” and the histamine response entry is “reduced”. Moreover, in the test with cubozoan porin [12], the “likelihood of a lethal outcome” value is “decrease the likelihood a lethal outcome” and the “severity of physiological symptoms associated with the venom poisoning” value was “reduce the severity of physiological symptoms”. For the same molecule, in the test with bacterial porin, the “health of the subject” value is recorded as “improve the health of the subject” and the “severity of physiological symptoms associated with porin exposure” value is reported as “reduce the severity of physiological symptoms”.
